Source: ChEMBL document CHEMBL1144625, “A new platinum complex of triazine demonstrates G1 arrest with novel biological profile in human breast cancer cell line, MDA-MB-468” (Bioorg Med Chem Lett, 2007)

System: MDA-MB-468
Test: Antiproliferative activity against MDA-MB-468 cells by MTT assay
Type: functional, cell-based
Conditions: Homo sapiens

IC50	SMILES
> 100 µM	c1ccc(Sc2nc(N3CCOCC3)nc(N3CCOCC3)n2)nc1
> 100 µM	c1ccc(Sc2nc(N3CCSCC3)nc(N3CCSCC3)n2)nc1

SMILES	IC50
c1ccc(Sc2nc(N3CC3)nc(N3CC3)n2)nc1	> 100 µM
